Where two headings read alike, the source gives them in different places.
Tests used:
Cdr1 = molecular target: T1, Cdr1 (Candida albicans, UniProt Q5ANA3); assay: Efflux of Rhodamine 6G (Cdr1 efflux assay); type: cell-based; settings: C. albicans SC5314; R6G 10 μM; Compound 1 0.3, 3 and 30 μM
T1 construct: endogenous in cells; host or cells: Candida albicans SC5314 (wild type)
Protocol: Efflux of Rhodamine 6 G. Efflux of R6G was measured generally base on a method described previously by Shukla (cited below). Briefly, C. albicans SC5314 grown overnight at 30° C. in SC medium were transferred to fresh SC medium with a 1:50 dilution and grown at 30° C. with constant shaking for about 5 h. Cells were then pelleted, washed twice with phosphate-buffered saline (PBS), and resuspended in PBS as about 3 OD600 nm. The cells were then deenergized for 45 min in […] 2-deoxy-D-glucose. The cells were pelleted, washed and resuspended in PBS as 3 OD600 nm, to which compounds (30 μM or noted) and R6G (10 μM) were added successively and incubated at 30° C. for 40 min. Cells were collected, washed and resuspended in PBS with or without compounds and incubated at 30° C. Two percent glucose was added at time point 20 min to initiate the energy-dependent efflux. Samples were taken out every 10 min and the absorption of the supernatant was detected at 527 nm.
To further determine if the spiroindolinone functions by inhibiting Cdr1, the activity of efflux pumps was determined by monitoring the efflux of R6G, a fluorescent compound that is used for Cdr1 efflux assay in C. albicans. […] Extracellular R6G concentrations were quantified by measuring the absorbance of the supernatant at 527 nm. […]

[1] = system: heterozygous deletion C. albicans strains; assay: Whole genome Haploinsufficiency Profiling (HIP); type: cell-based, Candida albicans; settings: 0.05 μM Compound 1 + 0.125 μg/ml FLC vs. 0.125 μg/ml FLC
Protocol: Whole genome Haploinsufficiency Profiling (HIP) analysis. Haplo-Insufficiency Profiling (HIP) with the Double BarCoded (DBC) library was used. A pool of 5,470 heterozygous deletion C. albicans strains constructed by Merck, to identify potential targets for the azole-synergizer, Compound 1. The collection, obtained from Merck Sharp & Dohme Corp in 96-well plates, were transferred to YPD (2% peptone, 1% yeast extract, and 2% glucose) agar plates and grown at 30° C. for 72 h. All colonies were collected from plates and pooled in SC medium, add glycerol to 15% and adjust to the final concentration of 50 OD600 nm per milliliter, store in aliquot at −80° C.
Stock pools were diluted into SC medium to an OD600 nm of 0.0875 and drug treatments were performed in a 1 ml SC medium in 24-well plates. The appropriate drug treatment concentrations were determined before screening. […]
Bioinformatics analysis of HIP. Sequencing reads were first separated by their experimental tags into treatments and then filtered by UPTAG or DNTAG. Among the reads mapped with experimental tags, more than 95% can be filtered exclusively by UPTAG or DNTAGs. Filtered reads were mapped to an artificial genome containing each individual gene in the library identified by UPTAG or DNTAG using bowtie 1.0.
Read counts per gene were calculated using a weighted arithmetic mean of mapped UPTAG and DNTAG read counts. […]

[2] = system: C. albicans strain HLY4123 and clinical isolates 26 and 45; assay: Checkerboard assay (MIC90, FIC index); type: cell-based, Candida albicans; settings: for MIC90: Candida albicans; for FICI: Compound 25 + fluconazole
Protocol: Checkerboard assays were carried out using four 24-well plates. The results on each plate were normalized by duplication of one row and one column with a row and column on another plate. C. albicans was grown in SC medium overnight and then diluted to an effective OD600 of 0.0625. Serial ten-fold dilutions of the test compounds (150 mM) were prepared in DMSO in 1.5 mL Eppendorf tubes. […] Concentrations of compound in rows 1-11 varied from 300 μM to 0.0003 nM; the last row 12 contained no compound. […] The plates were incubated in a rotary shaker/incubator at 30° C. for 16 h. The contents of each well was resuspended with a micropipettor and a 20 μL aliquot was added to a polystyrene cuvette and diluted with 680 μL of deionized water. The suspension was triturated again immediately before measuring the absorbance at 600 nm. The MIC90 values were determined as the lowest concentrations of the drugs (alone or in combination) that inhibited fungal growth by 90% compared with that of the drug-free wells.
(§1) In all of the strains tested, the FIC index was below 0.5, fitting the classical definition of synergy.

[3] = Solubility limit in the checkerboard assay; type: physicochemical; settings: checkerboard assay medium
Excerpt: as §1

T1 sequence (Q5ANA3 whole entry): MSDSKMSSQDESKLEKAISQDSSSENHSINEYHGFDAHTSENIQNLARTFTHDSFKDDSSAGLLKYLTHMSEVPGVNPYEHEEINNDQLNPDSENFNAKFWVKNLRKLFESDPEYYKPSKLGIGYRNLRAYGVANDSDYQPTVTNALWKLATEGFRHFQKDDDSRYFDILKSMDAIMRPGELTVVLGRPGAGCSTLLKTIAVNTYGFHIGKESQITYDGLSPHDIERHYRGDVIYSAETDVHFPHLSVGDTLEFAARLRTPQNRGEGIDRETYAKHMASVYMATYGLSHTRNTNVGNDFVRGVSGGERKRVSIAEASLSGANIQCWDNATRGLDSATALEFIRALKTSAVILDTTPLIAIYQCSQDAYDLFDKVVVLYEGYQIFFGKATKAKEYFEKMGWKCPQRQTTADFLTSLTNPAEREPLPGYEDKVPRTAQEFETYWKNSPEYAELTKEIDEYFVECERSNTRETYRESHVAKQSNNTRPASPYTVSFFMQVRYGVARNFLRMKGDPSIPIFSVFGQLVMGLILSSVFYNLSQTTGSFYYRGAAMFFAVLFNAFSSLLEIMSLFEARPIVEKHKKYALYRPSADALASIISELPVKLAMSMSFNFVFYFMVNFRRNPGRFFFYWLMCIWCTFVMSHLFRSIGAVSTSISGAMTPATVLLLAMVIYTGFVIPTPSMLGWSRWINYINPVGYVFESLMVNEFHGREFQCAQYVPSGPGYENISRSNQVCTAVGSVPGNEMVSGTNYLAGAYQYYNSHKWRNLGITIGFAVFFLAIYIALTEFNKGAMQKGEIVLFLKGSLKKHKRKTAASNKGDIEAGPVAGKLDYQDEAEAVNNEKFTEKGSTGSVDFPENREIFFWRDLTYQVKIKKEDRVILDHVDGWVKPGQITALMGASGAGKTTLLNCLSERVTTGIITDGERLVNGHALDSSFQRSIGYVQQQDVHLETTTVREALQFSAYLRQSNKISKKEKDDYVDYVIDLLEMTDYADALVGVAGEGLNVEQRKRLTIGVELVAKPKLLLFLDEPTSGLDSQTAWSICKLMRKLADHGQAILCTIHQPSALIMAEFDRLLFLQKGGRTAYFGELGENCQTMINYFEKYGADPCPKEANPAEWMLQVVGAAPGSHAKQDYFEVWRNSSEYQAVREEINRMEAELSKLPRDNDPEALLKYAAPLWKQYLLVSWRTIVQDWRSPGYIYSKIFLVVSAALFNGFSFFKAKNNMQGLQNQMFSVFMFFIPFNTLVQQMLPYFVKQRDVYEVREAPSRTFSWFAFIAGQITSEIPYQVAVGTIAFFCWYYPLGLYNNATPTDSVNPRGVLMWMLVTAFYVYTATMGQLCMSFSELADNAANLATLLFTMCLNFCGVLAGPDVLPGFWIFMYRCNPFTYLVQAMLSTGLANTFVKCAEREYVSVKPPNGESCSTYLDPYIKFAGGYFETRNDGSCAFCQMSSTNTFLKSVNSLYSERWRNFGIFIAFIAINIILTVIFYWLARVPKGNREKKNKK

Row | Compound | energy dependent efflux of R6G (Cdr1) | HIP profiling, mutants with significant change in abundance [1] | MIC90 ([2]; read-out: MICcpd (+Flc) (MIC90), clinical isolate 26, with fluconazole) | MIC90 ([2]; read-out: MICcpd (+Flc) (MIC90), clinical isolate 45, with fluconazole) | MIC90 ([2]; read-out: MICcpd (+Flc) (MIC90), strain HLY4123, with fluconazole) | MIC90 ([2]; read-out: MICcpd (MIC90), clinical isolate 26, compound alone) | MIC90 ([2]; read-out: MICcpd (MIC90), clinical isolate 45, compound alone) | MIC90 ([2]; read-out: MICcpd (MIC90), strain HLY4123, compound alone) | FIC index ([2]; all of the strains tested, with fluconazole) | toxicity of compound alone against the strains ([2]; alone, at the solubility limit, any of the strains) | FICI ([2]; clinical isolate 26) | FICI ([2]; clinical isolate 45) | FICI ([2]; strain HLY4123) | solubility [3]
1 | Cc1c(Cl)ccc2c1NC(=O)[C@]21N[C@H](Cc2ccccc2)[C@@H]2C(=O)N(c3ccc(F)cc3)C(=O)[C@@H]21 (racemic) [Compound 1, (±)-(3R,3′R,3a′R,6a'S)-3′-benzyl-6-chloro-5′-(4-fluorophenyl)-7-methyl-2′,3′,3a′,6a′-tetrahydro-4′H-spiro[indoline-3,1′-pyrrolo[3,4-c]pyrrole]-2,4′,6′(5′H)-trione] | almost totally inhibited | cdr1/CDR1 emerged as the only mutant that showed a significant change in abundance |  |  |  |  |  |  |  |  |  |  |  | 
2 | Cc1c(Cl)ccc2c1NC(=O)[C@@]21[C@H]2C(=O)N(c3ccccc3)C(=O)[C@H]2[C@H]2CN(C(=O)OCc3ccccc3)CCN21 (racemic) [Compound 25, (±)-benzyl (3R,3a′R,3b'S,9a'S)-6-chloro-7-methyl-1′,2,3′-trioxo-2′-phenyl-2′,3′,3a′,3b′,4′,6′,7′,9a′-octahydrospiro[indoline-3,9′-pyrrolo[3′,4′:3,4]pyrrolo[1,2-a]pyrazine]-5′(1′H)-carboxylate] |  |  | 0.3 µM | 0.03 µM | 0.03 µM | > 30 µM | > 30 µM | > 300 µM | below 0.5 | did not have measurable toxicity | 0.14 | 0.13 | 0.25 | 30 to 300 µM

— patent US11174267B2, “Spiroindolinones and therapeutic uses thereof” (The Regents of the University of California, priority 2015, dated 2021)
